Experimental findings from patent publication US9056891B2, “Synthetic peptide inhibitors of Wnt pathway” (The United States of America, as represented by the …, priority 2010, dated 2015) are described below.

Where a SMILES comes first, the peptide text is derived from it. The star is where a group is joined. Palmitoyl = CCCCCCCCCCCCCCCC(=O)*

One test concerns HCT-116 cells. The format is cell-based, human. The following applies: 48 h. The protocol:
(§1) HeLa, U3A, RKO, HCT-116, and HT-29 cells were exposed to the CT-HC-1, CT-HC-3, CT-HC-5, and CT-HC-8 inhibitors of Example 1 for 48 hours in medium containing 1% bovine fetal serum, and the resulting cell number was evaluated using a MTT assay. Each of these cell lines is relevant to the evaluation of Wnt signaling. Cervical carcinoma HeLa cells overexpress β-catenin (see, e.g., Lee et al., Int. J. Cancer, 124(2): 287-297 (2009); and Lee et al., Gynecol. Oncol., 109(2): 270-274 (2008)). β-catenin is activated in colon carcinoma RKO due to mutation in CDX2 (see, e.g., Dang et al., Oncogene, 20(35): 4884-4890 (2001)). Colon adenocarcinoma HCT116 has elevated mutated β-catenin; however, it was found in the past to be resistant to down regulation of β-catenin (see, e.g., Chan et al., Proc. Natl. Acad. Sci. USA, 99(12): 8265-8270 (2002); and Handeli et al., Mol. Cancer Ther., 7(3): 521-529 (2008)). Colon carcinoma HT-29 has truncated adenomatous polyposis coli (APC) protein, which is a common cause of canonical Wnt pathway activation in colon malignancies. Fibrosarcoma U3A cells are STAT1-negative and have uncharacterized status of Wnt pathway.
(§2) The ability of CT-HC-1 to inhibit growth and to kill cancer cells at different concentrations was further investigated in HeLa, U3A, RKO, HCT-116, and HT-29 cells. The cells were stained with Promega Non-Radioactive Cell Proliferation Assay Kit (MTT) according to the manufacture's protocol. The absorbance of the wells was determined at 544 nm by a FLUOstar/POLARstar Galaxy (BMG Lab Technologies GmbH) Microplate Reader. The assays were performed on control (C) and test (T) cells. Untreated cells were used as a control. Cellular responses were calculated from the data using the following formula: 100×[(T−T0)/(C−T0)] for T>T0 and 100×[(T−T0)/T0] for T<T0. T0 corresponds to cell density at the time of drug addition.

Test [1] concerns HeLa, U3A, RKO, HCT-116, and HT-29 cells. In words: MTT cell number versus concentration (FIG. 1). The format is cell-based. The following applies: HCT-116, HT-29. As for the experimental part: as §2
Test [2] relates to Lim-1, E-cadherin, Axin-2 expression. In words: Semi-quantitative RT-PCR of marker expression in MM cells. The format is cell-based. From the text: (§3) To determine if the loss of β-catenin affects differentiation, MM cells were co-cultivated with inductor, embryonic spinal cord, and treated with CT-HC-1. In these cultures, tubule formation was unaffected. This finding was supported by semi-quantitative RT-PCR analysis of BIO-induced MM cells in which levels of epithelial markers Lim-1 and E-cadherin were unaltered with CT-HC-1 treatment. […] This observation is consistent with reports describing an antagonistic relationship between canonical and non-canonical Wnt mechanisms (see, e.g., Park et al., Development, 132: 2533-2539 (2007); and Schmidt-Ott et al., Development, 132: 3177-3190 (2007).

A further test concerns U3A cells. The test is classed as cell-based. The note with it: 48 h. The protocol: as §1, §2
In another test the test system is HT-29 cells. The format is cell-based. The note with it: 48 h. As for the experimental part:
as §1, §2

A further test concerns HeLa cells. The test is classed as cell-based. The note with it: 48 h. The protocol:
as §1, §2

The test system of the next test is RKO cells. The format is cell-based. The note with it: 48 h. As for the experimental part:
as §1, §2

Another test relates to 4T1 cells. In words: Toxicity (growth inhibition) for 4T1 cells. The format is cell-based, mouse. As for the experimental part:
To identify a mouse model for preclinical development of compounds, mouse cell lines were tested for (1) growth inhibition by the compounds and (2) the levels of constitutive Wnt signaling TCF-reporter activity using transfection of cell with TCF/LEF-responsive firefly luciferase construct. The data further confirmed that sensitivity to compounds correlated well with the levels of canonical Wnt signaling.
Based on the data, mouse breast cancer cell line 4T1 was selected for in vivo testing.
(§4) Further optimization and testing of inhibitors was performed using this cell line. Table 5 presents toxicity data for select inhibitors for 4T1 cells and human colon cancer cell line SW-480, wherein GI50 is the concentration providing 50% growth inhibition and TGI is the total growth inhibition.

Test [3] relates to Wnt pathway (TOPflash reporter transcription). In words: TOPflash dual luciferase reporter assay in primary metanephric mesenchyme (MM) cells. The note with it: 10 μM, 30 min pre-treatment, 24 hours. The test is classed as cell-based. As for the experimental part:
Primary metanephric mesenchyme (MM) cells were transfected with the Amaxa Nucleofector 96-well Shuttle System (Lonza Group Ltd, Basel, Switzerland). Briefly, 1×10^6 cells per transfection were resuspended in 20 μl of 96-well Nucleofector solutions. TOPflash luciferase plasmid (1 μg) and 0.1 μg pRL-TK-renilla plasmids (Promega, Madison, Wis., USA) were mixed with cell suspensions and transferred to the well of a 96-well Nucleocuvette module. Nucleofections were performed according to manufacturer's instructions using program DN-100.
MM cells were pre-treated with or without CT-HC-1 (10 μM) for 30 min, and then exposed to GSK3 inhibitor BIO (500 nM) or Wnt3a conditioned medium (50%) (Wnt3aCM as described in Willert et al., Nature, 423: 448-452 (2003)) for 24 hours. Cells were lysed and assayed for reporter activity using a Dual luciferase assay system (Promega) and a Monolight 3010 Luminometer (Pharmagen, San Diego, Calif., USA).
In general terms: In a reporter assay the amount or activity of a reporter protein is the signal.

The subject of test [4] is MM cells (tubule formation). In words: MM cell differentiation, co-cultivation with embryonic spinal cord inductor. The format is cell-based. The note with it: MM cells co-cultivated with embryonic spinal cord.
Excerpt: as §3

Another test concerns SW480 cells. In words: Toxicity (growth inhibition) for SW-480 cells. Set-up: unit not given here. The test is classed as cell-based, human. The protocol:
as §4

Test [5] relates to RKO, HT-29, HCT-116, SW-480, and SW-620 cells. The test can be described thus: Cell viability of colon cancer cells (FIGS. 2A-C). The format is cell-based. The following applies: increasing concentrations, HT-29, HCT-116, SW-480, SW-620. As for the experimental part: The concentration (μM) of the peptide inhibitor is indicated on the x-axis and the percent viability is indicated on the y-axis.
A similar experiment was performed using RKO, HT-29, HCT-116, SW-480, and SW-620 cells. Colorectal adenocarcinoma SW-480 and SW-620 cells have truncated APC protein, which—as discussed above—is a common cause of canonical Wnt pathway activation in colon malignancies.

The next test has as its system β-catenin. In words: Levels of total β-catenin in MM cells. The format is cell-based. The protocol: Cells were also evaluated for levels of total β-catenin. In these studies, β-catenin was degraded within 3 hours of treatment with CT-HC-1.
The mark [6] stands for this setting: cells exposed only to peptide, no inductive ligand.

As to `CCCCCCCCCCCCCCCC(=O)NCCCC[C@H](N)C(=O)N[C@@H](Cc1ccc(O)cc1)C(=O)N[C@@H](CCCCN)C(=O)N[C@@H](CCCCN)C(=O)N[C@@H](CCCNC(=N)N)C(=O)N[C@@H](CC(C)C)C(=O)N[C@@H](CO)C(=O)N[C@H](C(=O)N[C@@H](CCC(=O)O)C(=O)N[C@@H](CC(C)C)C(=O)N[C@H](C(=O)N[C@@H](CO)C(=O)N[C@@H](CO)C(=O)N[C@@H](CC(C)C)C(=O)N[C@@H](Cc1ccccc1)C(=O)N[C@@H](CCCNC(=N)N)C(=O)O)[C@@H](C)O)C(C)C` [CT-HC-1, Pal-ε-KYKKRLSVELTSSLFR] (H-K(Palmitoyl)YKKRLSVELTSSLFR-OH; N-terminus and C-terminus assumed), the GI50 (usually the concentration that inhibits growth by half) with HCT-116 cells was 3400 ± 250 nM; in the test with U3A cells, 600 ± 40 nM; with HT-29 cells, 1400 ± 50 nM; in the test with HeLa cells, 630 ± 25 nM; in the test on RKO cells, 1300 ± 50 nM. Further, the “cell number as compared to untreated cells” value in [1] is reported as “decreased cell numbers in a concentration dependent manner”. In [2] (BIO-induced MM cells), the “levels of epithelial markers Lim-1 and E-cadherin” value is given as “unaltered”. In [2] (setting [6]), the Axin-2 expression result is “decrease”. Besides, the “expression of Lim-1 and E-cadherin” value in test [2] (setting [6]) is given as “enhanced expression”. This molecule also registered a 4T1 cells TGI (total growth inhibition) in the test with 4T1 cells of more than 5000 nM. Also, the “BIO-induced transcription (TOPflash reporter)” value in test [3] (BIO 500 nM) is given as “completely blocked”. Further, the “Wnt3aCM-induced transcription (TOPflash reporter)” value in [3] (Wnt3a conditioned medium 50%) was “completely blocked”. In addition, the tubule formation result in test [4] is given as “unaffected”. In the test with SW480 cells, the “SW480 cells TGI (total growth inhibition)” value amounted to 5. The cell viability entry in test [5] is listed as “decreased viability”. The “time of treatment within which β-catenin was degraded” value in the test on β-catenin is not above 3 h. The “β-catenin levels 24 hours after treatment” value in the test on β-catenin (24 hours) is “had not recovered”. Besides, in the test on β-catenin (with MG132), the “β-catenin levels in presence of proteasomal inhibitor MG132” value was “stabilized”.
